Among the data in patent US9982017B2, “Synthetic apelin mimetics for the treatment of heart failure” (priority 2012, dated 2018) are half-life values, retold here.

The series can be described thus: in vitro. The conditions noted are these: rat, not told, Surrogate activity-based Plasma stability t½.

Where a SMILES comes first, the peptide text is derived from it. Bridges are numbered along the chain shown (N, C = ends). [ ]: non-standard residue; d: D form. The star is where a group is joined. Palmitoyl = CCCCCCCCCCCCCCCC(=O)*; pGlu = O=C1CC[C@@H](C(=O)O)N1; NHPhenethyl = c1ccc(CCN*)cc1; Lauroyl = CCCCCCCCCCCC(=O)*; Nle = CCCC[C@H](N)C(=O)O; Orn = NCCC[C@H](N)C(=O)O; Api = NC1(C(=O)O)CCNCC1; Dab = NCC[C@H](N)C(=O)O; AEEA = NCCOCCOCC(=O)O; Aib = CC(C)(N)C(=O)O; Inp = O=C(O)C1CCNCC1

Description: The slope of this line, k, was determined by linear regression (Microsoft Excel). • Stability half-life was then calculated by the formula, t ½=0.693÷k Surrogate Activity-Based Plasma Stability Assay:
The calcium flux protocol described above was followed, with the following changes. The peptides were also incubated with 5% rat plasma (Bioreclamation # [sequence]-M, Na Heparin-treated). Readings were taken at time points t0 and t24 hrs, after incubation in a 37° C. tissue culture incubator. Peptide plasma half-life in minutes was estimated by calculating the following:
2) Calculate slope of value above and

`CCCC[C@@H]1NC(=O)[C@@H]2CCCN2C(=O)CNC(=O)[C@H](Cc2ccccc2)NC(=O)[C@H](Cc2c[nH]cn2)NC(=O)[C@@H](NC(=O)[C@H](CC(C)C)NC(=O)[C@H](CCCNC(=N)N)NC(=O)[C@@H]2CCCN2C(=O)[C@H](CCCNC(=N)N)NC(=O)[C@@H]2CCC(=O)N2)CCCCNC(=O)C[C@@H](C(=O)NCCc2ccccc2)NC1=O` [Example 1, pE-R-P-R-L-K-H-F-G-P-Nle-D-Phenethylamine] ([pGlu]RPRLKHFGP[Nle]D-NHPhenethyl; lactam 6-12) had a half-life of 30.7 min. `CCCC[C@@H]1NC(=O)[C@@H]2CCCN2C(=O)CNC(=O)[C@H](Cc2ccccc2)NC(=O)[C@H](Cc2c[nH]cn2)NC(=O)[C@@H](NC(=O)[C@H](CC(C)C)NC(=O)[C@H](CCCNC(=N)N)NC(=O)[C@@H]2CCCN2C(=O)[C@H](CCCNC(=N)N)NC(=O)[C@@H]2CCC(=O)N2)CCCCNC(=O)CC[C@@H](C(=O)NCCc2ccccc2)NC1=O` [Example 2, pE-R-P-R-L-K-H-F-G-P-Nle-E-Phenethylamine] ([pGlu]RPRLKHFGP[Nle]E-NHPhenethyl; lactam 6-12) came in with a half-life of 27.1 min. As to `CCCC[C@@H]1NC(=O)[C@@H]2CCCN2C(=O)CNC(=O)[C@H](Cc2ccccc2)NC(=O)[C@H](Cc2c[nH]cn2)NC(=O)[C@@H](NC(=O)[C@H](CC(C)C)NC(=O)[C@H](CCCNC(=N)N)NC(=O)[C@@H]2CCCN2C(=O)[C@H](CCCNC(=N)N)NC(=O)[C@@H]2CCC(=O)N2)CCCNC(=O)C[C@@H](C(=O)NCCc2ccccc2)NC1=O` [Example 3, pE-R-P-R-L-Orn-H-F-G-P-Nle-D-Phenethylamine] ([pGlu]RPRL[Orn]HFGP[Nle]D-NHPhenethyl; lactam 6-12), the half-life is 98 min. As for `CCCC[C@@H]1NC(=O)[C@@H]2CCCN2C(=O)CNC(=O)[C@H](Cc2ccccc2)NC(=O)[C@H](Cc2c[nH]cn2)NC(=O)[C@@H](NC(=O)[C@H](CC(C)C)NC(=O)[C@H](CCCNC(=N)N)NC(=O)[C@@H]2CCCN2C(=O)[C@H](CCCNC(=N)N)NC(=O)[C@@H]2CCC(=O)N2)CCNC(=O)C[C@@H](C(=O)NCCc2ccccc2)NC1=O` [Example 4, pE-R-P-R-L-Dab-H-F-G-P-Nle-D-Phenethylamine] ([pGlu]RPRL[Dab]HFGP[Nle]D-NHPhenethyl; lactam 6-12), the figure is 50 min; as for `CCCC[C@@H]1NC(=O)[C@@H]2CCCN2C(=O)CNC(=O)[C@H](CCCCN)NC(=O)[C@H](Cc2ccccc2)NC(=O)[C@@H](NC(=O)[C@H](CC(C)C)NC(=O)[C@H](CCCNC(=N)N)NC(=O)[C@@H]2CCCN2C(=O)[C@H](CCCNC(=N)N)NC(=O)[C@@H]2CCC(=O)N2)CCCCNC(=O)[C@H](Cc2ccccc2)NC1=O` [Example 5, pE-R-P-R-L-K-F-K-G-P-Nle-F] ([pGlu]RPRLKFKGP[Nle]F; lactam 6-C), 126 min. The compound `CCCC[C@@H]1NC(=O)[C@@H]2CCCN2C(=O)CNC(=O)[C@H](CCCCN)NC(=O)[C@H](Cc2ccccc2)NC(=O)[C@@H](NC(=O)[C@H](CC(C)C)NC(=O)[C@H](CCCNC(=N)N)NC(=O)[C@@H]2CCCN2C(=O)[C@H](CCCNC(=N)N)NC(=O)[C@@H]2CCC(=O)N2)CCCCNC(=O)[C@@H](Cc2ccccc2)NC1=O` [Example 6, pE-R-P-R-L-K-F-K-G-P-Nle-f] ([pGlu]RPRLKFKGP[Nle][dF]; lactam 6-C) displayed a half-life of 117 min. In turn, `CCCC[C@@H]1NC(=O)[C@@H]2CCCN2C(=O)CNC(=O)[C@H](CCCCN)NC(=O)C(C)(C)NC(=O)[C@@H](NC(=O)[C@H](CC(C)C)NC(=O)[C@H](CCCNC(=N)N)NC(=O)[C@@H]2CCCN2C(=O)[C@H](CCCNC(=N)N)NC(=O)[C@@H]2CCC(=O)N2)CSSC[C@@H](C(=O)N[C@@H](Cc2ccccc2)C(=O)O)NC1=O` [Example 9, pE-R-P-R-L-C-Aib-K-G-P-Nle-C-F-OH] ([pGlu]RPRLC[Aib]KGP[Nle]CF-OH; disulfide 6-12) came in with a half-life above 1000 min.

`CCCC[C@@H]1NC(=O)[C@@H]2CCCN2C(=O)CNC(=O)[C@H](CCCCN)NC(=O)C(C)(C)NC(=O)[C@@H](NC(=O)[C@H](CC(C)C)NC(=O)[C@H](CCCNC(=N)N)NC(=O)[C@@H]2CCCN2C(=O)[C@H](CCCNC(=N)N)NC(=O)[C@@H]2CCC(=O)N2)CSSC[C@@H](C(=O)N[C@H](Cc2ccccc2)C(=O)O)NC1=O` [Example 10, pE-R-P-R-L-C-Aib-K-G-P-Nle-C-f-OH] ([pGlu]RPRLC[Aib]KGP[Nle]C[dF]-OH; disulfide 6-12) had a half-life above 1000 min. Turning to `CCCC[C@@H]1NC(=O)[C@@H]2CCCN2C(=O)CNC(=O)[C@H](CCCCN)NC(=O)C(C)(C)NC(=O)[C@@H](NC(=O)[C@H](CC(C)C)NC(=O)[C@H](CCCNC(=N)N)NC(=O)[C@@H]2CCCN2C(=O)[C@H](CCCNC(=N)N)NC(=O)C2CCNCC2)CSSC[C@@H](C(=O)N[C@H](Cc2ccccc2)C(=O)O)NC1=O` [Example 11, H-Isn-R-P-R-L-C-Aib-K-G-P-Nle-C-f-OH] (H-[Inp]RPRLC[Aib]KGP[Nle]C[dF]-OH; disulfide 6-12), the half-life was above 1000 min. As for `CCCC[C@@H]1NC(=O)[C@@H]2CCCN2C(=O)CNC(=O)[C@H](CCCCN)NC(=O)[C@H](Cc2ccccc2)NC(=O)[C@@H](NC(=O)[C@H](CC(C)C)NC(=O)[C@H](CCCNC(=N)N)NC(=O)[C@@H]2CCCN2C(=O)[C@H](CCCNC(=N)N)NC(=O)[C@@H]2CCC(=O)N2)CSSC[C@@H](C(=O)N[C@@H](Cc2ccccc2)C(=O)O)NC1=O` [Example 15, pE-R-P-R-L-C-F-K-G-P-Nle-C-F-OH] ([pGlu]RPRLCFKGP[Nle]CF-OH; disulfide 6-12), the figure is 180 min; as for `CCCC[C@@H]1NC(=O)[C@@H]2CCCN2C(=O)CNC(=O)[C@H](Cc2ccccc2)NC(=O)[C@H](Cc2c[nH]cn2)NC(=O)[C@@H](NC(=O)[C@H](CC(C)C)NC(=O)[C@H](CCCNC(=N)N)NC(=O)[C@@H]2CCCN2C(=O)[C@H](CCCNC(=N)N)NC(=O)[C@@H]2CCC(=O)N2)CSSC[C@@H](C(=O)NCCc2ccccc2)NC1=O` [Example 19, pE-R-P-R-L-C-H-F-G-P-Nle-C-Phenethylamine] ([pGlu]RPRLCHFGP[Nle]C-NHPhenethyl; disulfide 6-12), 28.4 min; as for `CCCC[C@@H]1NC(=O)[C@@H]2CCCN2C(=O)C(C)(C)NC(=O)[C@H](CCCCN)NC(=O)[C@H](Cc2c[nH]cn2)NC(=O)[C@@H](NC(=O)[C@H](CC(C)C)NC(=O)[C@H](CCCNC(=N)N)NC(=O)[C@@H]2CCCN2C(=O)[C@H](CCCNC(=N)N)NC(=O)[C@@H]2CCC(=O)N2)CSSC[C@@H](C(=O)N[C@@H](Cc2ccccc2)C(=O)O)NC1=O` [Example 20, pE-R-P-R-L-C-H-K-Aib-P-Nle-C-F-OH] ([pGlu]RPRLCHK[Aib]P[Nle]CF-OH; disulfide 6-12), 490 min. Under `CCCC[C@@H]1NC(=O)[C@@H]2CCCN2C(=O)CNC(=O)C2(CCNCC2)NC(=O)[C@H](Cc2c[nH]cn2)NC(=O)[C@@H](NC(=O)[C@H](CC(C)C)NC(=O)[C@H](CCCNC(=N)N)NC(=O)[C@@H]2CCCN2C(=O)[C@H](CCCNC(=N)N)NC(=O)[C@@H]2CCC(=O)N2)CSSC[C@@H](C(=O)N[C@@H](Cc2ccccc2)C(=O)O)NC1=O` [Example 21, pE-R-P-R-L-C-H-(4-NH-Isn)-G-P-Nle-C-F-OH] ([pGlu]RPRLCH[Api]GP[Nle]CF-OH; disulfide 6-12) stands 640 min. `CCCCCCCCCCCCCCCC(=O)NCCCC[C@H](NC(=O)[C@@H]1CSSC[C@H](NC(=O)[C@H](CC(C)C)NC(=O)[C@H](CCCNC(=N)N)NC(=O)[C@@H]2CCCN2C(=O)[C@H](CCCNC(=N)N)NC(=O)[C@@H]2CCC(=O)N2)C(=O)N[C@@H](Cc2c[nH]cn2)C(=O)N[C@@H](CCCCN)C(=O)NCC(=O)N2CCC[C@H]2C(=O)N[C@@H](CCCC)C(=O)N1)C(=O)O` [Example 22, pE-R-P-R-L-C-H-K-G-P-Nle-C-K(Palmitoyl)-OH] ([pGlu]RPRLCHKGP[Nle]CK(Palmitoyl)-OH; disulfide 6-12) displayed a half-life of 800 min.

With `CCCCCCCCCCCCCCCC(=O)NCCCC[C@@H]1NC(=O)[C@@H](NC(=O)[C@H](CC(C)C)NC(=O)[C@H](CCCNC(=N)N)NC(=O)[C@@H]2CCCN2C(=O)[C@H](CCCNC(=N)N)NC(=O)[C@@H]2CCC(=O)N2)CSSC[C@@H](C(=O)N[C@@H](Cc2ccccc2)C(=O)O)NC(=O)[C@H](CCCC)NC(=O)[C@@H]2CCCN2C(=O)CNC(=O)[C@H](CCCCN)NC1=O` [Example 23, pE-R-P-R-L-C-K(Palmitoyl)-K-G-P-Nle-C-F-OH] ([pGlu]RPRLCK(Palmitoyl)KGP[Nle]CF-OH; disulfide 6-12), the half-life is above 1000 min.

`CCCCCCCCCCCC(=O)NCCOCCOCC(=O)N[C@@H](CCC(N)=O)C(=O)N[C@@H](CCCNC(=N)N)C(=O)N1CCC[C@H]1C(=O)N[C@@H](CCCNC(=N)N)C(=O)N[C@@H](CC(C)C)C(=O)N[C@H]1CSSC[C@@H](C(=O)N[C@@H](Cc2ccccc2)C(=O)O)NC(=O)[C@H](CCCC)NC(=O)[C@@H]2CCCN2C(=O)CNC(=O)[C@H](CCCCN)NC(=O)[C@H](Cc2c[nH]cn2)NC1=O` [Example 25, Lauroyl-O2Oc-Q-R-P-R-L-C-H-K-G-P-Nle-C-F-OH] ({Lauroyl-AEEA}-QRPRLCHKGP[Nle]CF-OH; disulfide 6-12) showed a half-life above 1000 min. Compound `CCCCCCCCCCCC(=O)NCCCC[C@H](NC(=O)[C@@H]1CSSC[C@H](NC(=O)[C@H](CC(C)C)NC(=O)[C@H](CCCNC(=N)N)NC(=O)[C@@H]2CCCN2C(=O)[C@H](CCCNC(=N)N)NC(=O)[C@@H]2CCC(=O)N2)C(=O)N[C@@H](Cc2c[nH]cn2)C(=O)N[C@@H](CCCCN)C(=O)NCC(=O)N2CCC[C@H]2C(=O)N[C@@H](CCCC)C(=O)N1)C(=O)O` [Example 26, pE-R-P-R-L-C-H-K-G-P-Nle-C-K(Lauroyl)-OH] ([pGlu]RPRLCHKGP[Nle]CK(Lauroyl)-OH; disulfide 6-12) yielded a half-life above 1000 min.

Compound `CCCCCCCCCCCC(=O)NCCCC[C@@H]1NC(=O)[C@@H](NC(=O)[C@H](CC(C)C)NC(=O)[C@H](CCCNC(=N)N)NC(=O)[C@@H]2CCCN2C(=O)[C@H](CCCNC(=N)N)NC(=O)[C@@H]2CCC(=O)N2)CSSC[C@@H](C(=O)N[C@@H](Cc2ccccc2)C(=O)O)NC(=O)[C@H](CCCC)NC(=O)[C@@H]2CCCN2C(=O)CNC(=O)[C@H](CCCCN)NC1=O` [Example 27, pE-R-P-R-L-C-K(Lauroyl)-K-G-P-Nle-C-F-OH] ([pGlu]RPRLCK(Lauroyl)KGP[Nle]CF-OH; disulfide 6-12) had a half-life above 1000 min.

One may read the half-life as the time in which the quantity being followed falls by half. High values mean slow loss, low ones fast loss.
